Data on 13 compounds can be found in patent US11746100B2 (GLOBAL BLOOD THERAPEUTICS, INC., priority 2020, dated 2023).

In this experiment the target is T1, human ferroportin (Homo sapiens, UniProt Q9NP59).
T1 construct: luciferase reporter (read with the Nano-Glo Luciferase Assay System); expressed in transfected cells; host or cells: CHO cells, stably transfected, expression induced with doxycycline
T1 sequence (Q9NP59 1-571): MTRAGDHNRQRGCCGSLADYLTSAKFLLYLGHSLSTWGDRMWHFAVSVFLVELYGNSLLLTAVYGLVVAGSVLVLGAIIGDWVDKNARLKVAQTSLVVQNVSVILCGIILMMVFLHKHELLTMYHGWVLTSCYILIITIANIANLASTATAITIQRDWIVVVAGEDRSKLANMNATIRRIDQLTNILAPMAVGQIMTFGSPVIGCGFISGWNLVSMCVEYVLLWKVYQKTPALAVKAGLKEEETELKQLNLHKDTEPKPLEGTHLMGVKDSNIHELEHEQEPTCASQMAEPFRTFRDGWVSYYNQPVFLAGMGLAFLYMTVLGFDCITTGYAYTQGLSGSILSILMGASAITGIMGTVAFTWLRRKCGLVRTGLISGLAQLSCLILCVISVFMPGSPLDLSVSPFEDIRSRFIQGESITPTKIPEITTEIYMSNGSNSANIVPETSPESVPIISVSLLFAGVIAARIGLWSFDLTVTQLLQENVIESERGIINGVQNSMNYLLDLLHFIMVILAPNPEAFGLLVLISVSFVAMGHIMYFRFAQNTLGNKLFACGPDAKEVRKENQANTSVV
Briefly: Biological in-vitro ferroportin internalization assay (luciferase reporter). Conditions: average pEC50; stably-transfected CHO cell line expressing human ferroportin tagged to a luciferase reporter; 6 h incubation with test compound. The format is cell-based. Summed up:
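Stably transfected CHO cells expressing luciferase-tagged human ferroportin, plated 24 h with ferric ammonium citrate and induced with doxycycline for 24 h. Compounds incubated 6 h, then luciferase activity measured by Nano-Glo; average pEC50 reported.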
The compound `COc1ccc(NC(=O)CN(C)c2nc(-c3cc4cnccc4cn3)nc3c2CCC3)cn1` [Compound 258, N-(6-methoxypyridin-3-yl)-2-{methyl[2-(2,6-naphthyridin-3-yl)-5H,6H,7H-cyclopenta[d]pyrimidin-4-yl]amino}acetamide] displayed a pEC50 of 6.3.

The compound `CN1CC[C@@H](Oc2ccnc(-c3nc4c(c(N(C)CC(=O)NC(C)(C)C)n3)CCC4)c2)C1` [Compound 437, N-tert-butyl-2-{methyl[2-(4-{[(3R)-1-methylpyrrolidin-3-yl]oxy}pyridin-2-yl)-5H,6H,7H-cyclopenta[d]pyrimidin-4-yl]amino}acetamide] had a pEC50 of 8.0.

Regarding `CN(CC(=O)NC1(C)CCOC1)c1nc(-c2cn(C)cn2)nc2c1CCC2` (stereo not shown) [Compound 147, 2-{methyl[2-(1-methyl-1H-imidazol-4-yl)-5H,6H,7H-cyclopenta[d]pyrimidin-4-yl]amino}-N-(3-methyloxolan-3-yl)acetamide], the pEC50 turned out to be 6.7.

In turn, `c1ccc(-c2nc3c(c(N4CC5CC4CO5)n2)CCC3)nc1` (stereo not shown) [Compound 72, 5-[2-(pyridin-2-yl)-5H,6H,7H-cyclopenta[d]pyrimidin-4-yl]-2-oxa-5-azabicyclo[2.2.1]heptane] had a pEC50 of 5.5.

As for `CN(CC(=O)NC1CCCC1)c1nc(-c2cn(C)cn2)nc2c1CCC2` [Compound 150, N-cyclopentyl-2-{methyl[2-(1-methyl-1H-imidazol-4-yl)-5H,6H,7H-cyclopenta[d]pyrimidin-4-yl]amino}acetamide], the pEC50 is on record as 7.3.

As to `CN(CC(=O)NC(C)(C)C)c1nc(-c2cc(OCC3(O)CCOCC3)ccn2)nc2c1CCC2` [Compound 405, N-tert-butyl-2-[(2-{4-[(4-hydroxyoxan-4-yl)methoxy]pyridin-2-yl}-5H,6H,7H-cyclopenta[d]pyrimidin-4-yl)(methyl)amino]acetamide], the negative-log EC50 (pEC50) turned out to be 8.3.

`COc1cnc(-c2nc3c(c(N(C)CC(=O)NC(C)(C)C)n2)CCC3)cn1` [Compound 12, N-tert-butyl-2-{[2-(5-methoxypyrazin-2-yl)-5H,6H,7H-cyclopenta[d]pyrimidin-4-yl](methyl)amino}acetamide] yielded a pEC50 of 5.8.

`CN(CC(=O)NC(C)(C)C)c1nc(-c2cocn2)nc2c1CCC2` [Compound 163, N-tert-butyl-2-{methyl[2-(1,3-oxazol-4-yl)-5H,6H,7H-cyclopenta[d]pyrimidin-4-yl]amino}acetamide] showed a pEC50 of 5.4.

`COc1ccc(NC(=O)CN(C)c2nc(-c3cc(OC(F)F)ccn3)nc3c2CCC3)cn1` [Compound 225, 2-({2-[4-(difluoromethoxy)pyridin-2-yl]-5H,6H,7H-cyclopenta[d]pyrimidin-4-yl}(methyl)amino)-N-(6-methoxypyridin-3-yl)acetamide] displayed a negative logarithm of the EC50 (pEC50) of 6.8.

`CCc1ccnc(-c2nc3c(c(N(C)CC(=O)NC(C)(C)C)n2)CCC3)c1` [Compound 100, N-tert-butyl-2-{[2-(4-ethylpyridin-2-yl)-5H,6H,7H-cyclopenta[d]pyrimidin-4-yl](methyl)amino}acetamide] registered a pEC50 of 7.5.

On to `CN(Cc1ncnn1-c1cccc(F)c1)c1nc(-c2cc(OCCO)ccn2)nc2c1CCC2` [Compound 315, 2-({2-[4-({[1-(3-fluorophenyl)-1H-1,2,4-triazol-5-yl]methyl}(methyl)amino)-5H,6H,7H-cyclopenta[d]pyrimidin-2-yl]pyridin-4-yl}oxy)ethan-1-ol], for which the pEC50 was 6.8.

In the case of `COc1ccc(NC(=O)[C@@H](C)N(C)c2nc(-c3cc(OC4COC4)ccn3)nc3c2CCC3)cn1` [Compound 312, (2R)-N-(6-methoxypyridin-3-yl)-2-[methyl({2-[4-(oxetan-3-yloxy)pyridin-2-yl]-5H,6H,7H-cyclopenta[d]pyrimidin-4-yl})amino]propanamide], the pEC50 was 7.7.

Compound `CN(CC(=O)N1CCCCC1)c1nc(-c2cc(O[C@H]3CCOC3)ccn2)nc2c1CCC2` [Compound 343, 2-[methyl(2-{4-[(3S)-oxolan-3-yloxy]pyridin-2-yl}-5H,6H,7H-cyclopenta[d]pyrimidin-4-yl)amino]-1-(piperidin-1-yl)ethan-1-one] displayed a pEC50 of 7.7.

The pEC50 is the EC50 on a negative log10 scale, so that one unit is a factor of ten. Lower therefore signals a high EC50.
